Assay [1] addresses T1, GST-tagged recombinant human full-length TTK protein kinase (Homo sapiens, UniProt P33981).
T1 construct: GST-tagged recombinant human full-length TTK protein kinase; purchased Invitrogen (Life Technologies Ltd., Paisley, U.K.)
T1 sequence (P33981 1-857): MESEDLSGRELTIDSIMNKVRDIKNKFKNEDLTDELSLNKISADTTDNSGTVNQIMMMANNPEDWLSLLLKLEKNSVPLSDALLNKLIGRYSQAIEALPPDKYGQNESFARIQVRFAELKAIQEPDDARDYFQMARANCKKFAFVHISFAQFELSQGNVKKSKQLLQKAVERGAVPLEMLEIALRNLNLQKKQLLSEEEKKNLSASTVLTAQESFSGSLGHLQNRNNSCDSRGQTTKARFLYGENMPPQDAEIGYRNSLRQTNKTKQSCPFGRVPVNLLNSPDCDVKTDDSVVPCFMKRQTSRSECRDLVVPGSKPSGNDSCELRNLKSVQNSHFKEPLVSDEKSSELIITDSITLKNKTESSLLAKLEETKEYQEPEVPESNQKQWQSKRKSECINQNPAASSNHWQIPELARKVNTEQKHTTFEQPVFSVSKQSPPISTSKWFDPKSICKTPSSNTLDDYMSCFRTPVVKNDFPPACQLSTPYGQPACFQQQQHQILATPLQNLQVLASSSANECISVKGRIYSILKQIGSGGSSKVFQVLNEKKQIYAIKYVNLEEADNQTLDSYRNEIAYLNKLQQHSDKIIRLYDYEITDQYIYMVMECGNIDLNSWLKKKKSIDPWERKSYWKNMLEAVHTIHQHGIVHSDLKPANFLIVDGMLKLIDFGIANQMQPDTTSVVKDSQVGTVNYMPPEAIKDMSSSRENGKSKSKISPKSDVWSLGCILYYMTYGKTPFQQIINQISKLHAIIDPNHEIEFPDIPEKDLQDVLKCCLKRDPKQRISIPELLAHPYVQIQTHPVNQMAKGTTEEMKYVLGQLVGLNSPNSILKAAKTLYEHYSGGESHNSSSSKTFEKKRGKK
Nature of the assay: TTK mobility shift microfluidics assay, single-concentration percent inhibition screen. To be noted: 12.5 nM TTK, 10 μM ATP, mean of duplicate ± SD; for inhibition at 40 µM: compound at 40 μM, 1% DMSO; for inhibition at 400 µM: compound at 400 μM (fragment-like, MW < 300 Da). It counts as biochemical. As to the method:
The TTK kinase activity was measured in a mobility shift microfluidics assay with the Caliper LabChip EZReader II (Caliper Life Sciences, Hopkinton, MA, U.S.A.). For the initial percent inhibition compound screen, all compounds were tested at 40 μM, and fragment-like compounds (MW < 300 Da) were also tested at 400 μM. A 2.14 μM stock of GST-tagged recombinant human full-length TTK protein kinase from Invitrogen (Invitrogen, Life Technologies Ltd., Paisley, U.K.) and custom synthesized peptide from Pepceuticals (Pepceuticals Ltd., Enderby, U.K.) with sequence 5-FAM-[…]-amide were used. […] For every 10 mL of stock buffer, one Roche EDTA free complete mini-protease inhibitor cocktail tablet (Roche, Basel, Switzerland) was added. TTK was used at a final concentration of 12.5 nM. The assay plate was sealed and incubated at room temperature for 60 min. The assay was stopped by addition of stop buffer which contained 100 mM HEPES (pH 7.3), 20 mM EDTA, and 0.05% (v/v) Brij-35. The assay plate was then analyzed using the EZReader II. Z′ for compounds at 40 μM was 0.48, and Z′ for compounds at 400 μM was 0.61.

Assay [2] addresses T1, GST-tagged recombinant human full-length TTK protein kinase. Nature of the assay: TTK mobility shift microfluidics assay, IC50 determination (3 nM TTK). In kind it is biochemical. To be noted: for LE (ligand efficiency): from TTK IC50; for IC50: 3 nM TTK, 10 μM ATP, duplicate on the same plate.

These results are taken from publication PMC3665241, “Scaffold-Focused Virtual Screening: Prospective Application to the Discovery of TTK Inhibitors” (Journal of Chemical Information and Modeling, 2013).

By inhibition is commonly meant the drop in the measured response relative to a control, in per cent. For `c1cc2cnc3sccc3c2cn1` [Compound 3, Thieno[2,3-c][2,6]naphthyridine], in assay [1], the inhibition at 40 µM was found to be 70% and the inhibition at 400 µM is 105.5 ± 0.71%. Further, the “LE (ligand efficiency)” value in assay [2] is recorded as 0.45.
Regarding `c1ccc2c(c1)[nH]c1cncnc12` [Compound 4, 5H-pyrimido[5,4-b]indole], in assay [1], the inhibition at 40 µM is 42.5 ± 0.71% and the inhibition at 400 µM amounted to 63 ± 2.83%. In addition, the “LE (ligand efficiency)” value in assay [2] is listed as 0.44.
For `c1cc2cnc3ccsc3c2cn1` [Compound 5, thieno[3,2-c][2,6]naphthyridine], in that order: 46 ± 1.41%, 65 ± 2.83% and 0.44.
Turning to `c1cc2c(cn1)cnc1sccc12` [Compound 7, thieno[2,3-c][2,7]naphthyridine], in assay [1], the inhibition at 40 µM is 51 ± 1.41% and the inhibition at 400 µM came to 94.5 ± 2.12%. Besides, in assay [2], the “LE (ligand efficiency)” value worked out at 0.42.
For `N#Cc1ccccc1NC(=O)Cn1ncc2c1-c1ccccc1OC2` [Compound 10], the inhibition at 40 µM in assay [1] amounted to 53.5 ± 0.71%.
For orientation: IC50 means the point on the concentration scale where inhibition reaches its midpoint. As to `COc1ccc(Nc2ncnc3sc(-c4ccccc4)cc23)cc1OC` [Compound 11], the inhibition at 40 µM in assay [1] was 64 ± 1.41%. Moreover, in assay [2] (1% DMSO), the IC50 is 2.1 µM. Also, in assay [2], the “LE (ligand efficiency)” value is listed as 0.30.
Regarding `COc1ccc(C(=O)c2oc3cc(NC(C)=O)ccc3c2C)cc1OC` [Compound 12], in assay [1], the inhibition at 40 µM came to 68.5 ± 2.12%. Moreover, in assay [2] (1% DMSO), the IC50 is 4.2 µM. Moreover, in assay [2], the “LE (ligand efficiency)” value was found to be 0.28.
With `COc1ccc(Nc2nc(N)nc3nc[nH]c23)cc1OC` [Compound 13], in assay [1], the inhibition at 40 µM turned out to be 72 ± 1.41% and the inhibition at 400 µM turned out to be 86 ± 0.41%. In assay [2] (1% DMSO), the IC50 came to 7.7 µM. Further, the “LE (ligand efficiency)” value in assay [2] worked out at 0.33.
For the compound `COc1ccc(Nc2cc(-c3ccccc3)ncn2)cc1OC` [Compound 14], in assay [1], the inhibition at 40 µM was 68.5 ± 0.71%. Also, in assay [2] (1% DMSO), the IC50 came out at 9.9 µM. In assay [2], the “LE (ligand efficiency)” value was 0.30.
For the compound `COc1ccc(Nc2cc(C)nc(SC)n2)cc1OC` [Compound 15], in assay [1], the inhibition at 40 µM worked out at 57.5 ± 2.12% and the inhibition at 400 µM is 75.5 ± 0.71%. Also, in assay [2] (1% DMSO), the IC50 was 19.6 µM. For the same compound, the “LE (ligand efficiency)” value in assay [2] was 0.32.
With `COc1ccc(Nc2ncnc3c2cnn3C)cc1OC` [Compound 16], in assay [1], the inhibition at 40 µM was found to be 45.5 ± 2.12% and the inhibition at 400 µM is 82.5 ± 0.71%. In addition, the IC50 in assay [2] (1% DMSO) amounted to 19.3 µM. Also, the “LE (ligand efficiency)” value in assay [2] was 0.31.
With `COc1ccc(Nc2ncnc3[nH]ncc23)cc1OC` [Compound 17], in assay [1], the inhibition at 40 µM was found to be 69% and the inhibition at 400 µM was determined as 67%. Besides, the IC50 in assay [2] (1% DMSO) came out at 33.3 µM. Also, the “LE (ligand efficiency)” value in assay [2] came to 0.31.
As to `COc1ccc(Nc2ncnc3nc[nH]c23)cc1OC` [Compound 18], in assay [1], the inhibition at 40 µM is 34 ± 2.83% and the inhibition at 400 µM worked out at 67 ± 0.41%. For the same compound, the IC50 in assay [2] (1% DMSO) is 40.9 µM. Further, the “LE (ligand efficiency)” value in assay [2] is listed as 0.30.
For the compound `COc1ccc(Nc2cc(Cl)nc(N)n2)cc1OC` [Compound 19], in assay [1], the inhibition at 40 µM amounted to 65.5 ± 0.71% and the inhibition at 400 µM amounted to 96.5 ± 0.71%. The half-maximal inhibitory concentration (IC50) in assay [2] (1% DMSO) came out at 56.2 µM. In assay [2], the “LE (ligand efficiency)” value is on record as 0.30.
As to `COc1ccc(Nc2ccc3nnnn3n2)cc1OC` [Compound 20], in assay [1], the inhibition at 40 µM amounted to 71.5 ± 0.71% and the inhibition at 400 µM is 24.5 ± 2.12%. Besides, in assay [2] (10% DMSO (asterisk)), the IC50 is 78.6 µM. Further, the “LE (ligand efficiency)” value in assay [2] is listed as 0.28.
As to `COc1ccc(Nc2ccc3nnc(C(F)(F)F)n3n2)cc1OC` [Compound 21], in assay [1], the inhibition at 40 µM turned out to be 59 ± 2.83%. For the same compound, in assay [2] (10% DMSO (asterisk)), the IC50 turned out to be 90.1 µM. Also, the “LE (ligand efficiency)” value in assay [2] is on record as 0.23.
`COc1ccc(Nc2nc(Nc3ccc(OC)c(OC)c3)c3[nH]cnc3n2)cc1OC` [Compound 22]: in assay [1], the inhibition at 40 µM was found to be 71.5 ± 2.12%. Besides, in assay [2] (1% DMSO), the IC50 was under 0.025 µM.
Take `COc1ccc(NC(=O)c2nc[nH]n2)cc1OC` [Compound 23]: in assay [1], the inhibition at 40 µM turned out to be 23 ± 4.24% and the inhibition at 400 µM is 51 ± 1.41%. The IC50 in assay [2] (1% DMSO) is over 1000 µM.
As for `COc1ccc(Nc2cc(C)nc3ncnn23)cc1OC` [Compound 24], in assay [1], the inhibition at 40 µM came to 52% and the inhibition at 400 µM amounted to 34.5 ± 0.71%. Also, the IC50 in assay [2] (1% DMSO) was over 1000 µM.
